biological target: T1, human GPR119 (Homo sapiens, UniProt Q8TDV5); assay: AlphaScreen cAMP assay in Min-6/hGPR119 cells (activation of GPR119, intracellular cAMP); assay type: cell-based; settings: MIN6 cells stably transfected with human GPR119; cAMP by AlphaScreen after 45 minutes incubation at room temperature
T1 construct: expression vector for human GPR119 cDNA (Acc. No. NP_848566); expressed in transfected cells
T1 sequence (Q8TDV5 1-335): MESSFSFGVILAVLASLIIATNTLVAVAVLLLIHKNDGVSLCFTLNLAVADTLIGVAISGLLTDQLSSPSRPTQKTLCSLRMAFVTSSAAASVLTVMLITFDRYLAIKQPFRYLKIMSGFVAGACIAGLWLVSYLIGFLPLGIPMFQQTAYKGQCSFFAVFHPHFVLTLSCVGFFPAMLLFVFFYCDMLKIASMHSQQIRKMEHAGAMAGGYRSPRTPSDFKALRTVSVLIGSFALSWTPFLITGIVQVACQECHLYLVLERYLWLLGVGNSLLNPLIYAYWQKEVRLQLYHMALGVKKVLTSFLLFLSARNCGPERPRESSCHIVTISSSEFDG
Experimental: The compounds of formula I according to the invention modulate the activity of the G-protein-coupled receptor GPR119. The effect of the compounds on the activation of GPR119 and on the stimulation of intracellular cAMP concentration is determined using the AlphaScreen cAMP Assay Kit (Cat.No.#6760625R) made by PerkinElmer.
MIN6 cells [Miyazaki J et al. Endocrinology. 1990 July; 127(1):126-32] are stably transfected with an expression vector for human GPR119 cDNA (Acc. No. NP_848566). Min-6/hGPR119 cells are cultured in DMEM, 10% FBS, 50 μM β-mercaptoethanol, 0.3 mg/mL Geniticin, 2 mM GlutaMAX at 37° C. 5% CO2. For the assay, the cells are seeded in Optiplates (white, 384-well, 160W— barcoded, TC, sterile with lid, Cat.No.#6007688 (Perkin Elmer); 10000 cells/well; 50 μl). The plates covered with lids are then incubated for 24 hours at 37° C./5% CO2. After the medium is aspirated from the wells completely, 10 μl of the test compound are added, the compounds are diluted using stimulating buffer (140 mM NaCl, 3.6 mM KCl, 0.5 mM NaH2PO4, 0.5 mM MgSO4, 1.5 mM CaCl2, 10 mM Hepes, 5 mM NaHCO3; pH 7.4. 0.5 mM IBMX and 0.1% BSA, the final DMSO concentration is 1%). After 45 minutes incubation at room temperature (approx. 20° C.), the cAMP concentrations are determined using the AlphaScreen cAMP Assay Kit (Cat.No.#6760625R from PerkinElmer).

Question: `CC(C)(C)OC(=O)N1CCC(C2Cc3cc(-c4ccnc(C(F)(F)F)c4)ncc3O2)CC1` (stereo not drawn) [Example 56, 4-[5-(2-Trifluoromethyl-pyridin-4-yl)-2,3-dihydro-furo[2,3-c]pyridin-2-yl]-piperidine-1-carboxylic acid tert-butyl ester] was tested. Which EC50 did it give?
Answer: 222 nM

Question: With `Cn1ccc(-c2cc3c(cn2)OC(C2CCN(C(=O)OC(C)(C)C)CC2)C3)cc1=O` (stereo not drawn) [Example 57, 4-[5-(1-Methyl-2-oxo-1,2-dihydro-pyridin-4-yl)-2,3-dihydro-furo[2,3-c]pyridin-2-yl]-piperidine-1-carboxylic acid tert-butyl ester] as the compound, how does the EC50 read?
Answer: 685 nM

Question: `Cn1cc(-c2cc3c(cn2)OC(C2CCN(C(=O)OC(C)(C)C)CC2)C3)ccc1=O` (stereo not drawn) [Example 58, 4-[5-(1-Methyl-6-oxo-1,6-dihydro-pyridin-3-yl)-2,3-dihydro-furo[2,3-c]pyridin-2-yl]-piperidine-1-carboxylic acid tert-butyl ester] was tested. Which EC50 did it give?
Answer: 133 nM

Question: Which EC50 does the source give for `CC(C)(C)OC(=O)N1CCC(C2Cc3cc(-c4ccncc4C#N)ncc3O2)CC1` (stereo not drawn) [Example 59, 4-[5-(3-Cyano-pyridin-4-yl)-2,3-dihydro-furo[2,3-c]pyridin-2-yl]-piperidine-1-carboxylic acid tert-butyl ester] here?
Answer: 119 nM

Question: For `CC(C)(C)OC(=O)N1CCC(C2Cc3cc(-n4ccncc4=O)ncc3O2)CC1` (stereo not drawn) [Example 60, 4-[5-(2-Oxo-2H-pyrazin-1-yl)-2,3-dihydro-furo[2,3-c]pyridin-2-yl]-piperidine-1-carboxylic acid tert-butyl ester], which EC50 is on record?
Answer: 522 nM

Question: Which EC50 does the source give for `CS(=O)(=O)Cc1ccc(-c2cc3c(cn2)OC(C2CCN(C(=O)OC4CCC4)CC2)C3)cc1` (stereo not drawn) [Example 61, 4-[5-(4-Methanesulfonylmethyl-phenyl)-2,3-dihydro-furo[2,3-c]pyridin-2-yl]-piperidine-1-carboxylic acid cyclobutyl ester] here?
Answer: 31 nM

Question: With `CC(C)OC(=O)N1CCC(C2Cc3cc(-c4ccc(CS(C)(=O)=O)cc4)ncc3O2)CC1` (stereo not drawn) [Example 62, 4-[5-(4-Methanesulfonylmethyl-phenyl)-2,3-dihydro-furo[2,3-c]pyridin-2-yl]-piperidine-1-carboxylic acid isopropyl ester] as the compound, how does the EC50 read?
Answer: 36 nM

Question: With `CC(C)OC(=O)N1CCC(C2Cc3cc(-c4ccc(S(C)(=O)=O)cc4)ncc3O2)CC1` (stereo not drawn) [Example 63, 4-[5-(4-Methanesulfonyl-phenyl)-2,3-dihydro-furo[2,3-c]pyridin-2-yl]-piperidine-1-carboxylic acid isopropyl ester] as the compound, how does the EC50 read?
Answer: 18 nM

Question: Which EC50 does the source give for `CC1(OC(=O)N2CCC(C3Cc4cc(-c5ccc(CS(C)(=O)=O)cc5)ncc4O3)CC2)CC1` (stereo not drawn) [Example 64, 4-[5-(4-Methanesulfonylmethyl-phenyl)-2,3-dihydro-furo[2,3-c]pyridin-2-yl]-piperidine-1-carboxylic acid 1-methyl-cyclopropyl ester] here?
Answer: 51 nM

Question: For `CC(C)S(=O)(=O)c1ccc(-c2cc3c(cn2)OC(C2CCN(C(=O)OC(C)(C)C)CC2)C3)cc1` (stereo not drawn) [Example 65, 4-{5-[4-(Propane-2-sulfonyl)-phenyl]-2,3-dihydro-furo[2,3c]pyridin-2-yl}-piperidine-1-carboxylic acid tert-butyl ester], which EC50 is on record?
Answer: 26 nM

Question: With `CCS(=O)(=O)c1ccc(-c2cc3c(cn2)OC(C2CCN(C(=O)OC(C)(C)C)CC2)C3)cc1` (stereo not drawn) [Example 66, 4-[5-(4-Ethanesulfonyl-phenyl)-2,3-dihydro-furo[2,3-c]pyridin-2-yl]-piperidine-1-carboxylic acid tert-butyl ester] as the compound, how does the EC50 read?
Answer: 12 nM

Question: For `CC(=O)Nc1ccc(-c2cc3c(cn2)OC(C2CCN(C(=O)OC(C)(C)C)CC2)C3)cc1` (stereo not drawn) [Example 67, 4-[5-(4-Acetylamino-phenyl)-2,3-dihydro-furo[2,3-c]pyridin-2-yl]-piperidine-1-carboxylic acid tert-butyl ester], which EC50 is on record?
Answer: 13 nM

Question: For `Cn1cc(-c2cc3c(cn2)OC(C2CCN(C(=O)OC(C)(C)C)CC2)C3)cn1` (stereo not drawn) [Example 68, 4-[5-(1-Methyl-1H-pyrazol-4-yl)-2,3-dihydro-furo[2,3-c]pyridin-2-yl]-piperidine-1-carboxylic acid tert-butyl ester], which EC50 is on record?
Answer: 575 nM

Question: Which EC50 does the source give for `CC(C)(C)OC(=O)N1CCC(C2Cc3cc(-n4ccnc4)ncc3O2)CC1` (stereo not drawn) [Example 69, 4-(5-Imidazol-1-yl-2,3-dihydro-furo[2,3-c]pyridin-2-yl)-piperidine-1-carboxylic acid tert-butyl ester] here?
Answer: 162 nM

Question: Which EC50 does the source give for `Cc1nccn1-c1cc2c(cn1)OC(C1CCN(C(=O)OC(C)(C)C)CC1)C2` (stereo not drawn) [Example 70, 4-[5-(2-Methyl-imidazol-1-yl)-2,3-dihydro-furo[2,3-c]pyridin-2-yl]-piperidine-1-carboxylic acid tert-butyl ester] here?
Answer: 706 nM

Question: `CC(C)(C)OC(=O)N1CCC([C@@H]2Cc3cc(-c4ccc(S(C)(=O)=O)cn4)ccc3O2)CC1` [Example 71, (S)-4-[5-(5-Methanesulfonyl-pyridin-2-yl)-2,3-dihydro-benzofuran-2-yl]-piperidine-1-carboxylic acid tert-butyl ester] was tested. Which EC50 did it give?
Answer: 11 nM

Question: With `CC(C)(C)OC(=O)N1CCC([C@H]2Cc3cc(-c4ccc(S(C)(=O)=O)cn4)ccc3O2)CC1` [Example 72, (R)-4-[5-(5-Methanesulfonyl-pyridin-2-yl)-2,3-dihydro-benzofuran-2-yl]-piperidine-1-carboxylic acid tert-butyl ester] as the compound, how does the EC50 read?
Answer: 97 nM

Question: How did the EC50 turn out when `CC(C)(C)OC(=O)N1CCC([C@@H]2Cc3nc(-c4ccc(S(C)(=O)=O)cc4)ncc3O2)CC1` [Example 73, (S)-4-[2-(4-Methanesulfonyl-phenyl)-6,7-dihydro-furo[3,2-d]pyrimidin-6-yl]-piperidine-1-carboxylic acid tert-butyl ester] was run?
Answer: 27 nM

Question: With `CC(C)(C)OC(=O)N1CCC([C@H]2Cc3nc(-c4ccc(S(C)(=O)=O)cc4)ncc3O2)CC1` [Example 74, (R)-4-[2-(4-Methanesulfonyl-phenyl)-6,7-dihydro-furo[3,2-d]pyrimidin-6-yl]-piperidine-1-carboxylic acid tert-butyl ester] as the compound, how does the EC50 read?
Answer: 218 nM

Question: How did the EC50 turn out when `CC(C)(C)OC(=O)N1CCC(C2(C)Cc3cc(-c4ccc(S(C)(=O)=O)cc4)ncc3O2)CC1` (stereo not drawn) [Example 77, 4-[5-(4-Methanesulfonyl-phenyl)-2-methyl-2,3-dihydro-furo[2,3-c]pyridin-2-yl]-piperidine-1-carboxylic acid tert-butyl ester] was run?
Answer: 14 nM

Question: How did the EC50 turn out when `CC(C)(C)OC(=O)N1CCC(C2(C)Cc3cc(C4=CCN(S(C)(=O)=O)CC4)ncc3O2)CC1` (stereo not drawn) [Example 78, 4-[5-(1-Methanesulfonyl-1,2,3,6-tetrahydro-pyridin-4-yl)-2-methyl-2,3-dihydro-furo[2,3-c]pyridin-2-yl]-piperidine-1-carboxylic acid tert-butyl ester] was run?
Answer: 15 nM

Question: For `CC(C)(C)OC(=O)N1CCC(C2(C)Cc3cc(N4CCN(S(C)(=O)=O)CC4)ncc3O2)CC1` (stereo not drawn) [Example 79, 4-[5-(4-Methanesulfonyl-piperazin-1-yl)-2-methyl-2,3-dihydro-furo[2,3-c]pyridin-2-yl]-piperidine-1-carboxylic acid tert-butyl ester], which EC50 is on record?
Answer: 40 nM

Question: For `CC(C)(C)OC(=O)N1CCC(C2(C)Cc3cc(-c4ccc(CS(C)(=O)=O)cc4)ncc3O2)CC1` (stereo not drawn) [Example 80, 4-[5-(4-Methanesulfonylmethyl-phenyl)-2-methyl-2,3-dihydro-furo[2,3-c]pyridin-2-yl]-piperidine-1-carboxylic acid tert-butyl ester], which EC50 is on record?
Answer: 24 nM

Question: How did the EC50 turn out when `CC(C)(C)OC(=O)N1CCC(C2(C)Cc3cc(C4CCN(S(C)(=O)=O)CC4)ncc3O2)CC1` (stereo not drawn) [Example 81, 4-[5-(1-Methanesulfonyl-piperidin-4-yl)-2-methyl-2,3-dihydro-furo[2,3-c]pyridin-2-yl]-piperidine-1-carboxylic acid tert-butyl ester] was run?
Answer: 53 nM

Question: `CC(C)(C)OC(=O)N1CCC(C2(C)Cc3cc(-c4ccc(CS(C)(=O)=O)cc4F)ncc3O2)CC1` (stereo not drawn) [Example 82] was tested. Which EC50 did it give?
Answer: 21 nM

Question: `CC(C)(C)OC(=O)N1CCC([C@]2(C)Cc3cc(-c4ccc(S(C)(=O)=O)cc4)ncc3O2)CC1` [Example 83, (S)-4-[5-(4-Methanesulfonyl-phenyl)-2-methyl-2,3-dihydro-furo[2,3-c]pyridin-2-yl]-piperidine-1-carboxylic acid tert-butyl ester] was tested. Which EC50 did it give?
Answer: 4 nM

Question: `CC(C)(C)OC(=O)N1CCC([C@@]2(C)Cc3cc(-c4ccc(S(C)(=O)=O)cc4)ncc3O2)CC1` [Example 84, (R)-4-[5-(4-Methanesulfonyl-phenyl)-2-methyl-2,3-dihydro-furo[2,3-c]pyridin-2-yl]-piperidine-1-carboxylic acid tert-butyl ester] was tested. Which EC50 did it give?
Answer: 172 nM
